Test results published in US12558343B2, “Medical use of icaritin” (Lunan Pharmaceutical Group Corporation, priority 2020, dated 2026).
Blank lines part the entries; values can stand above or below the molecule they belong to.

What was measured:
[1] = test system: prolonged bleeding time caused by heparin sodium; assay: Tail-cut bleeding time in mice, prolonged by heparin sodium; type: in vivo, ICR mice; conditions: group P, 200 mg/kg i.p. once a day 5 days; heparin sodium 150 U/kg i.v.
Excerpt: 72 ICR mice aged 5-6 weeks, weighing 19-21 g, and half male and half female were selected. The mice were quarantined for 7 days after entering a laboratory and healthy mice were selected as test animals. The mice were weighed on first and last days of quarantine. According to the body weight on the last day of the quarantine, the male and female animals were divided into six groups by a simplified random method, namely, a normal group (C), a model group (V), low-, medium- and high-dose icaritin groups (2, 6, and 18 mg/kg, L, M, H) and a positive control drug group (200 mg/kg of etamsylate, P).
(§1) After 15 min of the modeling, the tails of the mice were cut and bleeding time of each mouse was measured.

[2] = mouse, in vivo, ip, 200 mg/kg
Method: (§7) After the grouping, the mice in the normal group and the model group were intragastrically administrated with 10 ml/kg of an icaritin solvent which was prepared by adding 12 g of hypromellose E5 and 0.1 g of sodium lauryl sulfate into 1 L of water. […] One hour after the last pre-administration, the mice in the model group and each administration group were injected with 150 U/kg of a heparin sodium injection through a tail vein to establish a model, and the mice in the normal group were injected with 10 ml/kg of a sodium chloride injection through a tail vein.
(§8) After the bleeding time was detected, the mice were anesthetized with sodium pentobarbital, blood was collected from an abdominal cardinal vein, and indicators of blood routine examination and four coagulation indicators (prothrombin time, thromboplastin time, thrombin time, and fibrinogen) were detected.

[3] = mouse, in vivo, ip, 200 mg/kg; remark: listed apart in the source
Method: as §7, §8

[4] = test system: prolonged bleeding time caused by aspirin; assay: Tail-cut bleeding time in mice, prolonged by aspirin; type: in vivo, ICR mice; conditions: group P, 200 mg/kg i.p. once a day 5 days; aspirin 20 mg/kg i.g.
Method: According to the body weight on the last day of the quarantine, the male and female animals were divided into six groups by a simplified random method, namely, a normal group (C), a model group (V), icaritin low-, medium- and high-dose groups (2, 6, and 18 mg/kg, L, M, H) and a positive control drug group (200 mg/kg of etamsylate, P).
as §1

[5] = test system: hemorrhagic transformation model induced by aspirin combined with cerebral ischemia-reperfusion; assay: Hemorrhagic transformation after cerebral ischemia-reperfusion (MCAO) caused by aspirin, bleeding rate; type: in vivo, ICR mice; conditions: 12 mg/kg i.g. Day 1-3 with aspirin 100 mg/kg; 24 h after MCAO; of 9 (icaritin) or 8 (icariin) animals
Method: (§2) 5-week-old ICR male mice were fed to 6-week-old and divided into a control group, a model group, an icaritin-3 mg/kg group, an icaritin-6 mg/kg group, an icaritin-12 mg/kg group, and an icariin-12 mg/kg group according to body weight. From day 1 to day 3 after the grouping, the mice in each icaritin group were separately intragastrically administrated with 3, 6, and 12 mg/kg of icaritin and the mice in the icariin group was intragastrically administrated with 12 mg/kg of icariin once a day, and the mice in other groups were intragastrically administrated with a corresponding vehicle; and except the control group, the mice in other groups were intragastrically administrated with aspirin (100 mg/kg) or clopidogrel (15 mg/kg) once a day at a volume of 10 mL/kg.
(§3) On day 3, 10 min after the administration, the mice were anesthetized by intraperitoneal injection of 70 mg/kg of pentobarbital sodium and subjected to a cerebral ischemia-reperfusion (middle cerebral artery occlusion, MCAO) surgery with ischemia for 1 h and reperfusion for 23 h.
(§4) 24 h after the surgery was an end point of the experiment.
(§5) Bleeding rate: the mice were anesthetized by intraperitoneal injection of 70 mg/kg of pentobarbital sodium, a brain tissue was taken out, cerebral hemorrhage was recorded and a bleeding rate of the mice in each group was calculated. Cerebral hemorrhage rate %=number of animals with cerebral hemorrhage/number of surviving animals in each group×100.

[6] = test system: hemorrhagic transformation model induced by clopidogrel combined with cerebral ischemia-reperfusion; assay: Hemorrhagic transformation after cerebral ischemia-reperfusion (MCAO) caused by clopidogrel, bleeding rate; type: in vivo, ICR mice; conditions: 12 mg/kg i.g. Day 1-3 with clopidogrel 15 mg/kg; 24 h after MCAO; of 8 (icaritin) or 7 (icariin) animals
Method: as §2, §3, §4, §5

[7] = test system: gastric injury; set-up: species or system SD rats; conditions: rat, in vivo
Method: (§6) An animal model of thromboembolic cerebral ischemia was prepared by blocking a middle cerebral artery with an autologous thrombus combined with a suture occlusion method, and a catheter was indwelled.
The left lung and gastric antrum were excised, fixed with 100 g/L of a neutral formaldehyde solution, and dehydrated conventionally to be transparent, the dehydrated tissue was dipped with wax and embedded, the embedded tissue was sectioned and stained, and pathological changes were observed under a light microscope. A damage degree was graded according to a degree of tissue congestion, edema and cell degeneration from mild to severe: grade I: 0%-25%, grade II: 26%-50%, grade III: 51%-75%, and grade IV: >75% (bleeding was observed under the microscope).

[8] = test system: gastric bleeding caused by thrombolytic drug; set-up: species or system SD rats; conditions: rat, in vivo
Method: as §6
24 h after the arterial administration, the rats in each group were anesthetized and dissected. The number of bleeding cases was observed under naked eyes and a light microscope, and a ratio of the number of bleeding cases to the total number was calculated.

[9] = test system: cerebral infarction; assay: Same rt-PA thrombolysis model, cerebral infarction volume (rate); type: in vivo, rats; conditions: rt-PA 5 mg/kg alone, compared with the model group
Method: An incision about 3.0-cm-long was taken from the skin in the middle of the neck, the muscle and the subcutaneous tissue were bluntly separated, the right bilateral common carotid arteries, external carotid arteries, and internal carotid arteries were separated to avoid damage to the vagus nerve, the internal carotid arteries were separated to the skull base, and the external carotid arteries were ligated at the bifurcation of the bilateral common carotid arteries. 0.1 ml of arterial blood from the femoral artery of the rat was taken using a 1-ml syringe, 4 U of thrombin was added, the materials were uniformly mixed and stood for 8-10 min, when the blood was coagulated, and the coagulated blood was injected into a 24 G venous indwelling needle to prepare a thrombus about 1-cm-long followed by a syringe containing 1-2 ml of normal saline. […] Infarct volume=non-ischemic side hemisphere volume-ischemic side hemisphere non-infarct area volume, and an infarct volume ratio was expressed as the percentage (%) of the infarct volume to the non-ischemic side hemisphere volume.

[10] = test system: myocardial infarction; assay: Isoproterenol myocardial infarction rats, electrocardiogram; type: in vivo, Wistar male rats; conditions: rt-PA 5 mg/kg femoral vein, compared with the model group
Method: 60 Wistar male rats (SPF grade), weighing 220-260 g, were randomly divided into a myocardial infarction modeling group and a control group according to a random number table, with 12 rats in the control group and 48 rats in the model group. The rats were conventionally fed in separate cages with 4 rats per cage. After a normal electrocardiogram was traced, the rats in the myocardial infarction modeling group were subcutaneously injected with 150 mg·kg^−1·d^−1 of isoproterenol (ISO) in a volume of 0.2 mL/100 g every other 24 h for 2 consecutive days. The rats in the control group were subcutaneously injected with a same amount (0.2 mL/100 g) of normal saline according the same method for 2 consecutive days. The electrocardiogram was monitored 24 h after the second subcutaneous injection of the isoproterenol. […] The ST segment elevation of greater than 0.2 mV in lead II or the formation of Q wave became the standard for myocardial infarction. […]
The rats were anesthetized by inhalation of ether. […] The electrocardiogram of the rat was monitored using the limb leads according to right upper limb-red, left upper limb-yellow, left lower limb-green, and right lower limb-black, an electrocardiograph was turned on at a paper speed of 50 mm/s and a voltage of 1 mv, and the animals were returned to the cages after the electrocardiogram.

[11] = test system: hemorrhagic transformation induced by thrombolytic drug; assay: Rat middle cerebral artery autologous thrombosis with rt-PA thrombolysis, cerebral hemorrhage volume; type: in vivo
Method: A rat model of middle cerebral artery autologous thrombosis was prepared according to the following method: rats were anesthetized by intraperitoneal injection of 10% […] at 350 mg/kg body weight and fixed on an operating table in a supine position, skin of the rats was routinely disinfected according to aseptic operation procedures, and draping was performed. An incision about 3.0-cm-long was taken from the skin in the middle of the neck, the muscle and the subcutaneous tissue were bluntly separated, the right bilateral common carotid arteries, external carotid arteries, and internal carotid arteries were separated to avoid damage to the vagus nerve, the internal carotid arteries were separated to the skull base, and the external carotid arteries were ligated at the bifurcation of the bilateral common carotid arteries. 0.1 ml of arterial blood from the femoral artery of the rat was taken using a 1-ml syringe, 4 U of thrombin was added, the materials were uniformly mixed and stood for 8-10 min, when the blood was coagulated, and the coagulated blood was injected into a 24 G venous indwelling needle to prepare a thrombus about 1-cm-long followed by a syringe containing 1-2 ml of normal saline. […]
Another 4 healthy rats were taken, sacrificed by excessive anesthesia, and subjected to cardiac perfusion. […] cerebral hemisphere tissues were taken, 0, 0.5, 1, 2, 4, 8, 16, 32, and 50 μL of arterial blood of male SD rats was successively added to each hemisphere tissue, PBS at a pH of 7.4 was added to a total volume of 3 ml, the tissue was homogenized for 30 s and ultrasonically lysed, and centrifugation was performed at 13,000 r/min and 4° C. for 30 min 0.8 mL of Drabkin's reagent was mixed with 0.2 mL of a supernatant of each sample, an obtained mixture was placed in a dark place at a room temperature for 10 min, and an absorbance at a wavelength of 540 nm (absorbance of sample not containing blood was set to 0) was measured. The absorbance was set as a Y-axis and the blood volume in each sample was set as an X-axis to draw a standard curve. […]

[12] = test system: myocardial infarction; assay: Isoproterenol myocardial infarction rats, heart weight / body weight; type: in vivo, Wistar male rats; conditions: rt-PA 5 mg/kg femoral vein
Method: 60 Wistar male rats (SPF grade), weighing 220-260 g, were randomly divided into a myocardial infarction modeling group and a control group according to a random number table, with 12 rats in the control group and 48 rats in the model group. The rats were conventionally fed in separate cages with 4 rats per cage. After a normal electrocardiogram was traced, the rats in the myocardial infarction modeling group were subcutaneously injected with 150 mg·kg^−1·d^−1 of isoproterenol (ISO) in a volume of 0.2 mL/100 g every other 24 h for 2 consecutive days. The rats in the control group were subcutaneously injected with a same amount (0.2 mL/100 g) of normal saline according the same method for 2 consecutive days. The electrocardiogram was monitored 24 h after the second subcutaneous injection of the isoproterenol. […] The ST segment elevation of greater than 0.2 mV in lead II or the formation of Q wave became the standard for myocardial infarction.
A total of 36 modeled rats were selected from the modeling group and randomly divided into a model group, a thrombolysis group and a thrombolytic drug+icaritin group according to the random number table. […]

- Fibrinogen [2]: 1.86 ± 0.40 g/L
- Prothrombin time [2]: 10.03 ± 1.24 s
- Thrombin time [2]: 24.34 ± 1.37 s
- Thromboplastin time [2]: 22.78 ± 2.34 s
- Number of erythrocytes [3]: 6.998 ± 0.871 10^12/L
- Number of leukocytes [3]: 1.903 ± 0.221 10^9/L
- Number of platelets [3]: 1097 ± 114 10^9/L
Molecule: O=S(=O)(O)c1cc(O)ccc1O [Etamsylate, reference compound]
- Bleeding time [1]: 21.4 ± 6.7^$ min
- Bleeding time [4]: 26.4 ± 6.4^$ min

Molecule: COc1ccc(-c2oc3c(CC=C(C)C)c(O[C@@H]4O[C@H](CO)[C@@H](O)[C@H](O)[C@H]4O)cc(O)c3c(=O)c2O[C@@H]2O[C@@H](C)[C@H](O)[C@@H](O)[C@H]2O)cc1 [Icariin, reference compound]
- Number of animals with cerebral hemorrhage [5]: 6
- Number of animals with cerebral hemorrhage [6]: 5

Molecule: Urokinase
- Incidence of gastric injury [7]: 100 ^$ $ %
- Number of animals, gastric damage grade I [7]: 1
- Number of animals, gastric damage grade II [7]: 2
- Number of animals, gastric damage grade III [7]: 2
- Number of animals, gastric damage grade IV [7]: 11
- Total number of animals with gastric injury [7]: 16
- Bleeding rate [8]: 68.8^$ $ %
- Number of bleeding animals [8]: 11

Molecule: rt-PA: alteplase (rt-PA), thrombolytic drug, 5 mg/kg via the femoral vein
- Pale white area of the infarcted area [9]: significantly decreased
- Pathological Q waves in electrocardiogram [10]: disappeared
- Cerebral hemorrhage volume ([11]; rt-PA 5 mg/kg femoral vein 3 h after modeling, 3 h after thrombolysis): 6.43 ± 0.89
- Cerebral hemorrhage volume ([11]; rt-PA 5 mg/kg femoral vein, 6 h after thrombolysis): 9.78 ± 1.01
- Cerebral hemorrhage volume ([11]; rt-PA 5 mg/kg femoral vein, 24 h after thrombolysis): 15.32 ± 2.01
- Whole heart weight [12]: 702.3 ± 10.8 mg
- Heart weight/body weight ([12]; model group 4.0, control 2.6): 2.8^$ $ mg/g
